One experiment addresses T1, Trx-6×His-BCL6 (human BCL6 BTB domain covering amino-acid sequence 5-129) (Homo sapiens, UniProt P41182).
T1 construct: made in house
Kind of experiment: HTRF assay (BCL6 / BCOR peptide). Format: binding. The following applies: 1 nM Trx-6×His-BCL6, 300 nM BCOR-AF633 peptide, 2 hours incubation at room temperature. The method, then:
After 2 hours incubation at room temperature the plate was read on a Pherastar FSX (BMG Labtech) plate reader equipped with 337 nm laser excitation filter, a first emission filter at 620 nm and a second emission filter at 665 nm. The % inhibition at each concentration was calculated by normalising FRET ratio to the appropriate high (DMSO with all reagents) and low (DMSO without BCL6) controls.
Regarding `Cc1nccc(Nc2ccc3c(c2)c2c(c(=O)n3C)OCC(F)(F)[C@H](C3CC3)N2)c1Cl` [Example 4e, (S)-10-((3-chloro-2-methylpyridin-4-yl)amino)-2-cyclopropyl-3,3-difluoro-7-methyl-1,2,3,4-tetrahydro-[1,4]oxazepino[2,3-c]quinolin-6(7H)-one], the “HTRF avg pIC50” value was 7.73.

On to `COC1CN(c2ncc(Cl)c(Nc3ccc4c(c3)c3c(c(=O)n4C)OCC(F)(F)[C@H](C4CC4)N3)n2)C1` [Example 11w, (S)-10-((5-chloro-2-(3-methoxyazetidin-1-yl)pyrimidin-4-yl)amino)-2-cyclopropyl-3,3-difluoro-7-methyl-1,2,3,4-tetrahydro-[1,4]oxazepino[2,3-c]quinolin-6(7H)-one], for which the “HTRF avg pIC50” value came to 8.43.

Staying with this experiment, now noted: 1 nM Trx-6×His-BCL6, 300 nM BCOR-AF633 peptide, 2 hours incubation at room temperature; read-out: HTRF avg pIC50 (converted).
For `CN(C)c1ncc(Cl)c(Nc2ccc3c(c2)c2c(c(=O)n3C)OCC(F)(F)[C@H](C3CC3)N2)n1` [Example 8a, (S)-10-((5-chloro-2-(dimethylamino)pyrimidin-4-yl)amino)-2-cyclopropyl-3,3-difluoro-7-methyl-1,2,3,4-tetrahydro-[1,4]oxazepino[2,3-c]quinolin-6(7H)-one], the IC50 is 10.7 nM.

In the case of `Cn1c(=O)c2c(c3cc(Nc4nc(N5CCCC(CF)C5)ncc4Cl)ccc31)N[C@@H](C1CC1)C(F)(F)CO2` (mixture of isomers) [Example 9f, (S)-10-((5-chloro-2-((R)-3-(fluoromethyl)piperidin-1-yl)pyrimidin-4-yl)amino)-2-cyclopropyl-3,3-difluoro-7-methyl-1,2,3,4-tetrahydro-[1,4]oxazepino[2,3-c]quinolin-6(7H)-one; (S)-10-((5-chloro-2-((S)-3-(fluoromethyl)piperidin-1-yl)pyrimidin-4-yl)amino)-2-cyclopropyl-3,3-difluoro-7-methyl-1,2,3,4-tetrahydro-[1,4]oxazepino[2,3-c]quinolin-6(7H)-one], the IC50 was 10.2 nM.

For `COCC(C)CNc1ncc(Cl)c(Nc2ccc3c(c2)c2c(c(=O)n3C)OCC(F)(F)[C@H](C3CC3)N2)n1` (mixture of isomers) [Example 11m, (S)-10-((5-chloro-2-(((R)-3-methoxy-2-methylpropyl)amino)pyrimidin-4-yl)amino)-2-cyclopropyl-3,3-difluoro-7-methyl-1,2,3,4-tetrahydro-[1,4]oxazepino[2,3-c]quinolin-6(7H)-one:(S)-10-((5-chloro-2-(((S)-3-methoxy-2-methylpropyl)amino)pyrimidin-4-yl)amino)-2-cyclopropyl-3,3-difluoro-7-methyl-1,2,3,4-tetrahydro-[1,4]oxazepino[2,3-c]quinolin-6(7H)-one (1:1)], the IC50 is 3.89 nM.

As to `Cn1c(=O)c2c(c3cc(Nc4nc(N5CC(O)CC6(CCC6)C5)ncc4Cl)ccc31)N[C@@H](C1CC1)C(F)(F)CO2` (mixture of isomers) [Example 12j, (S)-10-((5-chloro-2-((R)-8-hydroxy-6-azaspiro[3.5]nonan-6-yl)pyrimidin-4-yl)amino)-2-cyclopropyl-3,3-difluoro-7-methyl-1,2,3,4-tetrahydro-[1,4]oxazepino[2,3-c]quinolin-6(7H)-one:(S)-10-((5-chloro-2-((S)-8-hydroxy-6-azaspiro[3.5]nonan-6-yl)pyrimidin-4-yl)amino)-2-cyclopropyl-3,3-difluoro-7-methyl-1,2,3,4-tetrahydro-[1,4]oxazepino[2,3-c]quinolin-6(7H)-one (1:1)], the IC50 was 2.63 nM.

In the case of `Cn1c(=O)c2c(c3cc(Nc4nc(N5CC6(CN(CC7CC7)C6)C5)ncc4Cl)ccc31)N[C@@H](C1CC1)C(F)(F)CO2` [Example 9w, (S)-10-((5-chloro-2-(6-(cyclopropylmethyl)-2,6-diazaspiro[3.3]heptan-2-yl)pyrimidin-4-yl)amino)-2-cyclopropyl-3,3-difluoro-7-methyl-1,2,3,4-tetrahydro-[1,4]oxazepino[2,3-c]quinolin-6(7H)-one], the IC50 was 2.75 nM.

Consider `C[C@@H]1C[C@@H](O)CN(c2ncc(Cl)c(Nc3ccc4c(c3)c3c(c(=O)n4C)OCC(F)(F)[C@H](C4CC4)N3)n2)C1` [Example 9zb, (S)-10-((5-chloro-2-((3R,5R)-3-hydroxy-5-methylpiperidin-1-yl)pyrimidin-4-yl)amino)-2-cyclopropyl-3,3-difluoro-7-methyl-1,2,3,4-tetrahydro-[1,4]oxazepino[2,3-c]quinolin-6(7H)-one], for which the IC50 was 9.77 nM.

As to `CN1CCCN(c2ncc(Cl)c(Nc3ccc4c(c3)c3c(c(=O)n4C)OCC(F)(F)[C@H](C4CC4)N3)n2)CC1` [Example 11a, (2S)-10-[[5-chloro-2-(4-methyl-1,4-diazepan-1-yl)pyrimidin-4-yl]amino]-2-cyclopropyl-3,3-difluoro-7-methyl-2,4-dihydro-1H-[1,4]oxazepino[2,3-c]quinolin-6-one], the IC50 was 2.75 nM.

In the case of `Cn1c(=O)c2c(c3cc(Nc4nc(N5CCN(C6CC6)C(=O)C5)ncc4Cl)ccc31)N[C@@H](C1CC1)C(F)(F)CO2` [Example 1b, (S)-10-((5-chloro-2-(4-cyclopropyl-3-oxopiperazin-1-yl)pyrimidin-4-yl)amino)-2-cyclopropyl-3,3-difluoro-7-methyl-1,2,3,4-tetrahydro-[1,4]oxazepino[2,3-c]quinolin-6(7H)-one], the IC50 was 1.95 nM.

Consider `CCN(CC1CN(c2ncc(Cl)c(Nc3ccc4c(c3)c3c(c(=O)n4C)OCC(F)(F)[C@H](C4CC4)N3)n2)CCC1(F)F)C(C)=O` (mixture of isomers) [Example 9k], for which the IC50 was 4.27 nM.

For `Cn1c(=O)c2c(c3cc(Nc4nc(N5CCN6CCCC6C5)ncc4Cl)ccc31)N[C@@H](C1CC1)C(F)(F)CO2` (mixture of isomers) [Example 12h, (S)-10-((5-chloro-2-((S)-hexahydropyrrolo[1,2-a]pyrazin-2(1H)-yl)pyrimidin-4-yl)amino)-2-cyclopropyl-3,3-difluoro-7-methyl-1,2,3,4-tetrahydro-[1,4]oxazepino[2,3-c]quinolin-6(7H)-one:(S)-10-((5-chloro-2-((R)-hexahydropyrrolo[1,2-a]pyrazin-2(1H)-yl)pyrimidin-4-yl)amino)-2-cyclopropyl-3,3-difluoro-7-methyl-1,2,3,4-tetrahydro-[1,4]oxazepino[2,3-c]quinolin-6(7H)-one (1:1)], the IC50 is 2.04 nM.

On to `Cn1c(=O)c2c(c3cc(Nc4nc(N5C[C@H](O)C[C@H](O)C5)ncc4Cl)ccc31)N[C@@H](C1CC1)C(F)(F)CO2` [Example 11e, (S)-10-((5-chloro-2-((3R,5S)-3,5-dihydroxypiperidin-1-yl)pyrimidin-4-yl)amino)-2-cyclopropyl-3,3-difluoro-7-methyl-1,2,3,4-tetrahydro-[1,4]oxazepino[2,3-c]quinolin-6(7H)-one], for which the IC50 was 0.871 nM.

With `C[C@H]1C[C@@H](O)CN(c2cc(Nc3ccc4c(c3)c3c(c(=O)n4C)OCC(F)(F)[C@H](C4CC4)N3)c(Cl)cn2)C1` [Example 13a, (S)-10-((5-chloro-2-((3R,5S)-3-hydroxy-5-methylpiperidin-1-yl)pyridin-4-yl)amino)-2-cyclopropyl-3,3-difluoro-7-methyl-1,2,3,4-tetrahydro-[1,4]oxazepino[2,3-c]quinolin-6(7H)-one], the IC50 is 6.76 nM.

For the compound `Cn1c(=O)c2c(c3cc(Nc4nc(N5C[C@H]6CC[C@@H](C5)O6)ncc4F)ccc31)N[C@@H](C1CC1)C(F)(F)CO2` [Example 13p11, (S)-10-((2-((1R,5S)-8-oxa-3-azabicyclo[3.2.1]octan-3-yl)-5-fluoropyrimidin-4-yl)amino)-2-cyclopropyl-3,3-difluoro-7-methyl-1,2,3,4-tetrahydro-[1,4]oxazepino[2,3-c]quinolin-6(7H)-one], the IC50 was 7.24 nM.

With `CC1CC(C(=O)N2CCC2)CN(c2ncc(Cl)c(Nc3ccc4c(c3)c3c(c(=O)n4C)OCC(F)(F)[C@H](C4CC4)N3)n2)C1` (stereo partly drawn) [Example 12x30, (2S)-10-((2-(3-(azetidine-1-carbonyl)-5-methylpiperidin-1-yl)-5-chloropyrimidin-4-yl)amino)-2-cyclopropyl-3,3-difluoro-7-methyl-1,2,3,4-tetrahydro-[1,4]oxazepino[2,3-c]quinolin-6(7H)-one], the IC50 was 2 nM.

With `Cn1c(=O)c2c(c3cc(Nc4nc(N5CC[C@H]5CO)ncc4Cl)ccc31)N[C@@H](C1CC1)C(F)(F)CO2` [Example 12x33a, (S)-10-((5-chloro-2-((S)-2-(hydroxymethyl)azetidin-1-yl)pyrimidin-4-yl)amino)-2-cyclopropyl-3,3-difluoro-7-methyl-1,2,3,4-tetrahydro-[1,4]oxazepino[2,3-c]quinolin-6(7H)-one], the IC50 is 2.14 nM.

With `Cn1c(=O)c2c(c3cc(Nc4nc(N5CC(O)CC6(CC6)C5)ncc4Cl)ccc31)N[C@@H](C1CC1)C(F)(F)CO2` (mixture of isomers) [Example 11h, (S)-10-((5-chloro-2-((R)-7-hydroxy-5-azaspiro[2.5]octan-5-yl)pyrimidin-4-yl)amino)-2-cyclopropyl-3,3-difluoro-7-methyl-1,2,3,4-tetrahydro-[1,4]oxazepino[2,3-c]quinolin-6(7H)-one:(S)-10-((5-chloro-2-((S)-7-hydroxy-5-azaspiro[2.5]octan-5-yl)pyrimidin-4-yl)amino)-2-cyclopropyl-3,3-difluoro-7-methyl-1,2,3,4-tetrahydro-[1,4]oxazepino[2,3-c]quinolin-6(7H)-one (1:1)], the IC50 is 5.62 nM.

For `CC1CCCCN(c2ncc(Cl)c(Nc3ccc4c(c3)c3c(c(=O)n4C)OCC(F)(F)[C@H](C4CC4)N3)n2)C1` (mixture of isomers) [Example 11c, (S)-10-((5-chloro-2-((R)-3-methylazepan-1-yl)pyrimidin-4-yl)amino)-2-cyclopropyl-3,3-difluoro-7-methyl-1,2,3,4-tetrahydro-[1,4]oxazepino[2,3-c]quinolin-6(7H)-one:(S)-10-((5-chloro-2-((S)-3-methylazepan-1-yl)pyrimidin-4-yl)amino)-2-cyclopropyl-3,3-difluoro-7-methyl-1,2,3,4-tetrahydro-[1,4]oxazepino[2,3-c]quinolin-6(7H)-one (1:1)], the IC50 was 55 nM.
